According to patent US6919363B2, “Aryl substituted pyrazoles, triazoles and tetrazoles, and the use thereof” (Euro-Celtique S.A., priority 2000, dated 2005):
Read-outs that look alike come from different tables or passages of the source.

Tests used:
[1] = system: maximal electroshock-induced seizures (MES); test: maximum electroshock seizure test (MES), anticonvulsant activity; format: in vivo, mouse
From the text: The compounds of the present invention may be tested for in vivo anticonvulsant activity after i.v., p.o. or i.p. injection using a number of anticonvulsant tests in mice, including the maximum electroshock seizure test (MES). Maximum electroshock seizures are induced in male NSA mice weighing between 15-20 g and male Sprague-Dawley rats weighing between 200-225 g by application of current (50 mA, 60 pulses/sec, 0.8 msec pulse width, 1 sec duration, D.C., mice; 99 mA, 125 pulses/sec, 0.8 msec pulse width, 2 sec duration, D.C., rats) using a Ugo Basile ECT device (Model 7801). Mice are restrained by gripping the loose skin on their dorsal surface and saline-coated corneal electrodes are held lightly against the two corneae. Rats are allowed free movement on the bench top and ear-clip electrodes are used. Current is applied and animals are observed for a period of up to 30 seconds for the occurrence of a tonic hindlimb extensor response. A tonic seizure is defined as a hindlimb extension in excess of 90 degrees from the plane of the body. Results are treated in a quantal manner.
The ability of compounds of the present invention to block maximal electroshock-induced seizures (MES) is determined as described earlier.
A compound of the present invention is administered p.o. to mice 30 minutes before the test procedure.

[2] = target: rBIIA isoform of Na+ channels (Rattus norvegicus, UniProt P04775); test: electrophysiological assay, patch-clamp recordings of voltage-sensitive Na+ currents in HEK-293 cells; format: cell-based; conditions: rBIIA isoform of sodium channel
Description: Cell preparation: HEK-293 (NaIIA-B2) cell line stably expressing the rBIIA isoform of Na^+ channels is established in-house. The cells are cultured using standard techniques, as described previously (Verdoorn, T. A, et al., Neuron 4:919-928 (1990)). For electrophysiology, cells are plated onto poly-D-lysine pre-coated Cellware 35 mm Petri dishes (BIOCOAT, Becton Dickinson) at a density of ˜10^4 cells/dish on the day of re-seeding from confluent cultures. Our experience has been that cells are suitable for recordings for 2-3 days after plating.
Patch-clamp recordings of voltage-sensitive Na^+ currents: Whole-cell voltage-clamp recordings are made using conventional patch-clamp techniques (Hamill et al., Pfluegers Arch. 391:85-100 (1981)) with an Axopatch 200A amplifier (Axon Instruments, Foster City, Calif.). The recording chamber is continuously superfused with the external solution (150 mM NaCl, 5.4 mM KCl, 1.8 mM CaCl2, 1 mM MgCl2, 10 mM HEPES, 10 mM glucose, pH 7.4 adjusted with NaOH, osmolality ˜320 mmol/kg) at a speed of about 1 mL/min. […] Currents are recorded at room temperature (22-25° C.), filtered at 3 kHz with an active 8-pole Bessel filter (Frequency Devices, Haverhill, Mass.), digitized at 10-50 μs intervals, and stored using Digidata 1200 analog/digital interface with Pclamp6/Clampex software (Axon Instruments). […]

[3] = iv, mouse, i.v., read-out: MES i.v. ED50

Chain of rBIIA isoform of Na+ channels (P04775 whole entry, canonical isoform): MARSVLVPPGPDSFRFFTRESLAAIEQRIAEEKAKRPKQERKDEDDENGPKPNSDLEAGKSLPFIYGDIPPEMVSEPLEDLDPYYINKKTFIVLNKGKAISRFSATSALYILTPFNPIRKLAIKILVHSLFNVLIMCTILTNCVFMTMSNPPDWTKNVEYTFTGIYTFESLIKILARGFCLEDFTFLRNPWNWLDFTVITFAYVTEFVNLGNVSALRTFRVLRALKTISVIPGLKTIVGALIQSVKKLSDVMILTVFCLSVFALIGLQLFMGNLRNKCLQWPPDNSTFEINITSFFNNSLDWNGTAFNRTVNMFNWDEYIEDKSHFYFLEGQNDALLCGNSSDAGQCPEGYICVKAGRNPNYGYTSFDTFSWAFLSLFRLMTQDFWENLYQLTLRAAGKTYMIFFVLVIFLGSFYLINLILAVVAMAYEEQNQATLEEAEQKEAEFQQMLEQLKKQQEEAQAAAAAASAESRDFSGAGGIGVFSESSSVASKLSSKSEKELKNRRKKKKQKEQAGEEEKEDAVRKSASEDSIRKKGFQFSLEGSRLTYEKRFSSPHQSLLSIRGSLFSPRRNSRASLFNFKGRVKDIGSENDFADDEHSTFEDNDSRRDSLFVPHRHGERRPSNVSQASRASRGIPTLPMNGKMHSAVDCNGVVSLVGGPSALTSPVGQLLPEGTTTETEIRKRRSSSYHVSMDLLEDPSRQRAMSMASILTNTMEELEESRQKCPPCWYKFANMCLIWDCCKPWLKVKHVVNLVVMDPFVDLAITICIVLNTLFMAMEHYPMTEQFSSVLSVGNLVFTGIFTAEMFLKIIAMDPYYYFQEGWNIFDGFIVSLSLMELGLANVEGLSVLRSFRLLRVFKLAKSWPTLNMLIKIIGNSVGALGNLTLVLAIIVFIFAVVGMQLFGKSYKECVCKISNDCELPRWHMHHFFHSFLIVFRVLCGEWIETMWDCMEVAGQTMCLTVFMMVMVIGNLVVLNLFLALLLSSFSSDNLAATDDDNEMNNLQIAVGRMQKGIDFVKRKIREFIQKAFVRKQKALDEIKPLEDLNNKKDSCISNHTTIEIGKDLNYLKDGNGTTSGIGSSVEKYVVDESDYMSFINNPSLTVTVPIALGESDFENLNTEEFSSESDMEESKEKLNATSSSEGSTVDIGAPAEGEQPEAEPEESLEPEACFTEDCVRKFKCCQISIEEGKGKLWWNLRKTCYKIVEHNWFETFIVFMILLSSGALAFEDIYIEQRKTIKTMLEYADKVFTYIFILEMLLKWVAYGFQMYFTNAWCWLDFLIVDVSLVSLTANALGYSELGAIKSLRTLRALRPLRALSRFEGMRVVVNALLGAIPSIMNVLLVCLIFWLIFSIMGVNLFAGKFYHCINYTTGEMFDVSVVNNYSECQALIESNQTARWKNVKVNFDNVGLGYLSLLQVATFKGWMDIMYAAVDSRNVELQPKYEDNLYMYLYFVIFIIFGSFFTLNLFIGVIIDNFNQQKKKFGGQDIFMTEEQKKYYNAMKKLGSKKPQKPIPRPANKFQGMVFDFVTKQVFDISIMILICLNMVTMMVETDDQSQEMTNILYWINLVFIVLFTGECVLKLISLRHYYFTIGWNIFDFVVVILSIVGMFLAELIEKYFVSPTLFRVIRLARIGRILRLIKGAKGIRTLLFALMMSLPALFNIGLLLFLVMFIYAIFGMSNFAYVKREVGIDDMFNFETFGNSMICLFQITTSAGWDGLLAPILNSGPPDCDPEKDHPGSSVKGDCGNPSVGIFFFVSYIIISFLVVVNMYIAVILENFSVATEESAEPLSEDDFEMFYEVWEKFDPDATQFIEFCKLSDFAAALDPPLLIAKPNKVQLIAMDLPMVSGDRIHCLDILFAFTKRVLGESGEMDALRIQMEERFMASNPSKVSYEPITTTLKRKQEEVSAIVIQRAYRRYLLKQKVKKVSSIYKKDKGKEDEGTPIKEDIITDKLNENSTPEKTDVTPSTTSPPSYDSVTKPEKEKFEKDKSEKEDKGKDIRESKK

Row | melting point [°C] | Ki [2] [nM] | SMILES | ED50 [1, 3] [mg/kg] | ED50 ([1]; Mus musculus, po, mice, 30 minutes before the test procedure, read-out: MES po ED50) [mg/kg]
1 | 165 to 167 | 350 | NC(=O)c1ccn(-c2ccc(Oc3ccccc3)cc2)n1 [1-(4-Phenoxyphenyl)-1H-pyrazole-3-carboxamide] | 0.7 | –
2 | 142 to 144 | – | NC(=O)c1ccnn1-c1ccc(Oc2ccccc2)cc1 [1-(4-phenoxyphenyl)-1H-pyrazole-5-carboxamide] | 10 | –
3 | – | – | O=[N+]([O-])c1ccc(Oc2ccc(-n3cncn3)cc2)cc1 [1-[4-(4-Nitrophenoxy)phenyl]-1H-[1,2,4]triazole] | – | 6.6
